Publication PMC11537802, “The Neuroprotection of 1,2,4‐Triazole Derivative by Inhibiting Inflammation and Protecting BBB Integrity in Acute Ischemic Stroke” (CNS Neuroscience & Therapeutics, 2024)

Columns and labels:
IL‐1β = test: serum IL-1β in MCAO rats (ELISA); type: in vivo, Sprague–Dawley rats; conditions: 15 mg/kg, 48 h, p < 0.05
Description: (§1) Rats were randomly divided into five groups: Sham group (n = 24), rats received sham operation; MCAO model group (n = 30); SYS18 low‐dose group (7.5 mg/kg, n = 30); SYS18 high‐dose group (15 mg/kg, n = 30); and Positive control group rats were intraperitoneally injected with edaravone (15 mg/kg, n = 30). The tested compound was dissolved in 20% polyoxyethylene castor oil and was administered 0.5 h before operation and 6, 12, 24, and 36 h after reperfusion. The measurements were carried out 48 h after the operation. Ten animals in each group were used to measure brain water content, and 10 animals in each group were used to detect Evans blue content in brain tissue. Ten animals in each group were used for determination of biochemical indicators and pathological observations and WB experiments.
(§2) Blood sample was collected at 48 h after MCAO. After centrifugation at 4°C × 12,000 g for 10 min, the clear supernatant was stored at −80°C. The components of SOD, MDA, TNF‐α, and IL‐1β in the blood samples were measured according to the instructions of the assay kits.

syndecan‐1 = test: glycocalyx component syndecan-1 in MCAO rats (ELISA); type: in vivo, Sprague–Dawley rats; conditions: SYS18 high dose 15 mg/kg, 48 h, p < 0.05
Description: as §1
(§3) Blood and brain sample were collected at 48 h after MCAO. After centrifugation at 4°C × 12,000 g for 10 min, the clear supernatant was stored at −80°C. Their concentrations of syndecan‐1, HS, and heparanase (HPSE) were determined using an ELISA kit. […] Substrates A and B were added, and the substrate was catalyzed by HRP to produce a product, which eventually converted under the action of a stop solution, and the absorbance (OD value) was measured at a wavelength of 450 nm on a microplate reader.

MCAO rats [1] = test: hematoxylin and eosin staining of brain tissue in MCAO rats; type: in vivo, Sprague–Dawley rats; conditions: high-dose SYS18 (15 mg/kg), 48 h ischemia–reperfusion
Description: as §1
Hematoxylin and eosin staining were used to observe the effect of SYS18 on pathological changes in ischemia–reperfusion brain tissue. After 48 h of ischemia–reperfusion, the rats were sacrificed, and the brains were immediately fixed with 4% paraformaldehyde after transcranial perfusion with ice‐cold saline (The damaged brain is located in the ischemic penumbra of the right brain. Through HE staining and pathological sectioning under a microscope, the area where neuronal cells are morphologically intact and have not yet degenerated or necrotic is determined as the ischemic penumbra). […]

heparanase (HPSE) = heparanase (HPSE) in brain of MCAO rats (ELISA); type: in vivo, Sprague–Dawley rats; conditions: SYS18 high dose 15 mg/kg, 48 h, p < 0.05
Description: as §1, §3

MDA = test: serum MDA in MCAO rats (kit); type: in vivo, Sprague–Dawley rats; conditions: 15 mg/kg (high dose), 48 h, p < 0.05
Description: as §1, §2

TNF‐α = test: serum TNF-α in MCAO rats (ELISA); type: in vivo, Sprague–Dawley rats; conditions: 15 mg/kg, 48 h, p < 0.05
Description: as §1, §2

MCAO rats [2] = test: neurological score (Zea-Longa) in MCAO rats; type: in vivo, Sprague–Dawley rats; conditions: 48 h after surgery
Excerpt: (§4) C57BL/6 mice were randomly assigned to treatment groups by body weight. Operator blind to treatment status of animals. After the mice were anesthetized, a midline cervical incision was made. The left common carotid artery and external carotid artery were isolated and ligated. Arterial clamps were placed at the preparation line and distal end of the internal carotid artery. An incision was made at the bifurcation of the common carotid artery. 4–0 nylon line was inserted to a depth of 17–20 mm. The nylon line entered the internal carotid artery; then, it entered the skull to the anterior cerebral artery and blocked all blood flow sources in the middle cerebral artery. After keeping ischemic for 1 h, the animals were re‐anesthetized and then pulled out the nylon line for about 1 cm to achieve reperfusion for up to 48 h. The wound was disinfected with iodophor, and the skin was sutured. Put them on the electric blanket to maintain the body temperature after the completion of surgery; then, they were returned to cages upon recovery. For the sham group, except that no nylon line is inserted, other steps are the same as above. Sham group and model group were given 20% polyoxyethylene castor oil. Subsequently, the animals were sacrificed, and the serum and brains were collected for a series of subsequent analyses and studies.
Rats were randomly divided into five groups: Sham group (n = 24), rats received sham operation; MCAO model group (n = 30); SYS18 low‐dose group (7.5 mg/kg, n = 30); SYS18 high‐dose group (15 mg/kg, n = 30); and Positive control group rats were intraperitoneally injected with edaravone (15 mg/kg, n = 30). […]
According to Zea‐Longa 4‐point scoring criteria, the animals were scored for neurological function at 48 h after surgery. […] And the degree of each animal model was scored as follows: 0 point, no symptoms of nerve injury; 1 point, inability to fully extend the forepaw; 2 points, circling laterally; 3 points, tip to the opposite side; 4 points, inability to walk spontaneously and loss of consciousness. […]

MMP‐9 = test: immunofluorescence of MMP-9 in brain of MCAO rats; type: in vivo, Sprague–Dawley rats; conditions: high-dose SYS18 (15 mg/kg)
Description: as §1
(§5) Immunofluorescence testing selects the same area as HE staining to observe and analyze the fluorescence level in the field of view. After deparaffinization of the paraffin sections to water, the tissue sections were subjected to antigen retrieval in a microwave oven in a retrieval box filled with citric acid antigen retrieval buffer (pH 6.0), and the sections were incubated overnight at 4°C with rabbit monoclonal anti‐MMP‐9 (1:100), rabbit polyclonal anti‐claudin‐5 (1:200). […]

MCAO rats [3] = test: blood–brain barrier permeability (Evans blue content in brain) in MCAO rats; type: in vivo, Sprague–Dawley rats; conditions: 48 h
Description: as §1
The integrity of the BBB was investigated using Evans blue (EB). Forty‐six hours after reperfusion, rats were injected with EB (4% saline, 4 mL/kg) via the tail vein. Two hours later, rats were anesthetized and perfused with saline through the left ventricle until colorless perfusate. After hydrangea and brainstem were removed, the brains were collected and homogenized. Evans blue was extracted from the brain with N,N‐dimethylformamide. After centrifugation at 3700 rpm for 15 min, the absorbance of supernatant was detected at 620 nm wavelength.

[4] = blood–brain distribution and PK of SYS18 in rats after intraperitoneal injection; conditions: for Kp: brain/plasma
Description: The blood samples were anticoagulated with EDTA and stored at 4°C, then centrifuged at 4°C at 4000 r/min for 10 min. The plasma concentrations were detected simultaneously (plasma stored at −80°C refrigerator). The whole brain was stored at −80°C for later detection and then uniformly prepared into brain tissue homogenate to detect drug concentration. Use Excel to analyze the drug concentration—time data pharmacokinetic parameters through atrioventricular method.

claudin‐5 = test: immunofluorescence of claudin-5 in brain of MCAO rats; type: in vivo, Sprague–Dawley rats; conditions: high-dose SYS18 (15 mg/kg)
Description: as §1, §5

SOD = test: serum SOD in MCAO rats (kit); type: in vivo, Sprague–Dawley rats; conditions: 15 mg/kg, 48 h
Description: as §1, §2

[5] = system: mice model of increased peritoneal capillary permeability; test: acetic acid-induced increased peritoneal capillary permeability model (Evans blue in peritoneal lavage); type: in vivo, Kunming mice
Description: Sixty Kunming mice were randomly divided into control group, SYS18 low, medium, and high‐dose groups (20, 40, and 80 mg/kg, respectively), and positive control group was given celecoxib (40 mg/kg), 10 mice in each group. The mice in each group were administrated with 0.2 mL/10 g once a day for three consecutive days.
One hour after the last administration, 2% Evans blue saline 0.1 mL/10 g was injected via the tail vein, and 0.6% acetic acid 0.2 mL/10 g was injected intraperitoneally immediately. Twenty minutes later, the mice were killed, the abdominal cavity was cut open, and the abdominal cavity was washed several times with 5 mL normal saline to collect washing fluid. The samples were centrifuged at 4700 r/min for 5 min, and the lateral absorbance at the wavelength of 620 nm was measured with a UV spectrophotometer to compare the differences between groups.
Acetic acid‐induced increased peritoneal capillary permeability in mice is a classic model of peripheral inflammation. Anti‐inflammatory effects of SYS18 were evaluated by using an increased peritoneal capillary permeability assay. After intravenous injection of Evans blue saline solution, intraperitoneal injection of acetic acid was used to increase peritoneal capillary permeability in mice. The peritoneal capillary permeability of mice in each group was compared by collecting peritoneal lavage fluid and measuring abdominal Evans blue absorbance.

MCAO rats [6] = test: brain water content (dry/wet weight) in MCAO rats; type: in vivo, Sprague–Dawley rats; conditions: 48 h reperfusion, model 83.18% ± 0.71%
Description: as §1
The brain water content was evaluated by measuring difference between the dry and wet weights of brains. Briefly, after rats were sacrificed after 48 h of reperfusion, the brains were measured immediately to obtain the wet weights. Then, the brains were drying in a constant temperature oven at 100°C for 24 h, followed by measurements to obtain the dry weights. Brain water content was calculated according to the following formula, brain water content = 100% × (wet weight − dry weight)/wet weight.

MCAO mice = test: brain edema volume by T2-weighted MRI in MCAO mice; type: in vivo, C57BL/6 mice; conditions: SYS18 30 mg/kg twice a day, about 48 h after MCAO, model 36.64% ± 2.69%, p < 0.0001
Excerpt: as §4
Serial brain images were acquired approximately 48 h after MCAO. […]

HS = test: glycocalyx component HS in serum of MCAO rats (ELISA); type: in vivo, Sprague–Dawley rats; conditions: SYS18 high dose 15 mg/kg, 48 h, p < 0.05
Description: as §1, §3

[7] = 15 mg/kg (SYS18 high dose; edaravone i.p.), model 2.42 ± 0.84, p < 0.01
[8] = 15 mg/kg (SYS18 high dose; or edaravone positive control)
[9] = 15 mg/kg (SYS18 high dose; edaravone)

COc1ccc(-c2nc(-c3ccccc3O)n(-c3ccc(S(N)(=O)=O)cc3)n2)c(O)c1 [SYS18, 4‐(3‐(2‐hydroxy‐4‐methoxyphenyl)‐5‐(2‐hydroxyphenyl)‐1H‐1,2,4‐triazol‐1‐yl) benzenesulfonamide]
IL-1β in serum vs model group (IL‐1β): significantly decreased | syndecan-1 in brain tissue vs model group (syndecan‐1): significantly increased | histological damage of nerve cells in cerebral cortex (HE staining) (MCAO rats [1]): the necrosis of nerve cell in the brain tissue was attenuated | HPSE in brain tissue vs model group (heparanase (HPSE)): decreased | MDA levels in serum vs model group (MDA): reduced MDA levels in serum significantly | TNF-α in serum vs model group (TNF‐α): significantly decreased | neurological score (MCAO rats [2]; 7.5 mg/kg (low dose), model 2.42 ± 0.84, p > 0.05): 1.95 ± 0.74 | neurological score (MCAO rats [2]; [7]): 1.52 ± 0.68 | fluorescent intensity of MMP-9 vs model group (MMP‐9): decreased | Evans blue content in brain tissue (MCAO rats [3]; 7.5 mg/kg (low dose), p > 0.05 vs model): 7.06 ± 1.58 µg/g | Evans blue content in brain tissue (MCAO rats [3]; [8]): 5.74 ± 0.54 µg/g | Cmax ([4]; SD, rat, brain, ip, 15 mg/kg): 464 ng/g | MRT ([4]; SD, rat, brain, ip, 15 mg/kg): 7.15 h | k el ([4]; SD, rat, brain, ip, 15 mg/kg): 3.75e-05 s⁻¹ | Kp ([4]; SD, rat, ip, 15 mg/kg, B/P (ratio of total drug concentration in brain to plasma), rats, 15 mg/kg i.p., at 1–2 h): > 0.2 | Kp ([4]; SD, rat, ip, 15 mg/kg, B/P (ratio of total drug concentration in brain to plasma), rats, 15 mg/kg i.p., at 4–6 h): > 0.4 | Kp ([4]; SD, rat, ip, 15 mg/kg, cerebral‐blood ratio of area under the curve (AUC0‐t), rats, 15 mg/kg i.p.): > 0.4 | Tmax ([4]; SD, rat, in vivo, ip, 15 mg/kg): 2 h | half-life ([4]; SD, rat, in vivo, ip, 15 mg/kg): 5.12 h | CL/F ([4]; SD, rat, plasma, ip, 15 mg/kg): 16.7 mL/min/kg | Cmax ([4]; SD, rat, plasma, ip, 15 mg/kg): 1850 ng/mL | MRT ([4]; SD, rat, plasma, ip, 15 mg/kg): 3.87 h | Tmax ([4]; SD, rat, plasma, ip, 15 mg/kg): 1 h | Vd/F ([4]; SD, rat, plasma, ip, 15 mg/kg): 3 L/kg | half-life ([4]; SD, rat, plasma, ip, 15 mg/kg): 3.17 h | k el ([4]; SD, rat, plasma, ip, 15 mg/kg): 6.06e-05 s⁻¹ | AUC ([4]; SD, rat, plasma, ip, 15 mg/kg, AUC0‐inf_obs, blood, rats, 15 mg/kg i.p.): 8520 ng·h/mL | AUC ([4]; SD, rat, plasma, ip, 15 mg/kg, AUC0‐t, blood, rats, 15 mg/kg i.p.): 8440 ng·h/mL | AUC ([4]; SD, rat, plasma, ip, 15 mg/kg, area under the curve (AUC0‐t), blood, rats): 8440 ng·h/mL | AUMC0‐inf_obs ([4]; blood, rats, 15 mg/kg i.p.): 32940.745 ng/mg × h^2 | Tlag ([4]; blood, rats, 15 mg/kg i.p.): 0 h | AUC0‐inf_obs ([4]; brain, rats, 15 mg/kg i.p.): 3700.110 ng·h/mg | AUC0‐t ([4]; brain, rats, 15 mg/kg i.p.): 3504.387 ng·h/mg | AUMC0‐inf_obs ([4]; brain, rats, 15 mg/kg i.p.): 26458.752 ng/mg × h^2 | Tlag ([4]; brain, rats, 15 mg/kg i.p.): 0 h | area under the curve (AUC0‐t) ([4]; brain, rats, i.p.): 3500 ng·h/mg | fluorescent intensity of claudin-5 vs model group (claudin‐5): fluorescent intensity increased | SOD level in serum vs model group (SOD): could improve SOD level in serum | absorbance of Evans blue in peritoneal lavage fluid vs model group ([5]; SYS18 high dose 80 mg/kg once a day for 3 days): no statistical difference | absorbance of Evans blue in peritoneal lavage fluid vs model group ([5]; SYS18 low dose 20 mg/kg once a day for 3 days): did not significantly reduce | concentration of Evans blue in peritoneal lavage fluid vs model group ([5]; SYS18 medium dose 40 mg/kg once a day for 3 days): significantly reduced | brain water content (MCAO rats [6]; 7.5 mg/kg (low dose), p > 0.05): 81.98% ± 1.18% | brain water content (MCAO rats [6]; [9]): 80.62% ± 1.73% | brain edema volume (T2-MRI) (MCAO mice): 11.01% ± 5.32% | HS in serum vs model group (HS): decreased

CC1=NN(c2ccccc2)C(=O)C1 [edaravone, reference compound]
IL-1β in serum vs model group (IL‐1β): significantly decreased | TNF-α in serum vs model group (TNF‐α): significantly decreased | neurological score (MCAO rats [2]; [7]): 1.50 ± 0.61 | Evans blue content in brain tissue (MCAO rats [3]; [8]): 6.20 ± 2.76 µg/g | SOD level in serum vs model group (SOD): could improve SOD level in serum | brain water content (MCAO rats [6]; [9]): 81.13% ± 1.98%
